Assay results published in the supplement of paper PMC10307832.

Key:
Assay in all cases: relative viability (nuclei count vs DMSO), 5 days (fraction); higher = more cells survive
[1] = compound: C1CC(C2=C(C1)C3=C(N2)C=CC(=C3)Cl)C(=O)N [Selisistat] + Cc1nc(Nc2ncc(C(=O)Nc3c(C)cccc3Cl)s2)cc(N2CCN(CCO)CC2)n1 [Dasatinib] (partner 0.075 µM)
Method in brief: (§1)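 Cells from lung cancer lines were seeded into 1536-well plates and, one day later, dosed by pin tool. Treatments were either a single drug or a fixed dose of an anchor drug with five library-drug doses (not always all listed) in √10 steps. After 5 days, nuclei were stained in a one-step fixation (final 0.05% Triton X-100, 1% formaldehyde, 1 ug/ml Hoechst) and counted on 4× images, and relative viability is the treated-to-vehicle nuclei ratio, as the median of duplicate plates.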

[2] = compound: c1ccc2c(CCNc3ccc(Nc4ccncc4)cc3)c[nH]c2c1 [Serdemetan] + CC(=O)Nc1cccc(-n2c(=O)n(C3CC3)c(=O)c3c(Nc4ccc(I)cc4F)n(C)c(=O)c(C)c32)c1 [Trametinib] (partner 0.02 µM)
Method in brief: as §1

[3] = compound: c1ccc2c(CCNc3ccc(Nc4ccncc4)cc3)c[nH]c2c1 [Serdemetan] + COc1cc2c(Oc3ccc(NC(=O)C4(C(=O)Nc5ccc(F)cc5)CC4)cc3F)ccnc2cc1OCCCN1CCOCC1 [Foretinib] (partner 0.25 µM)
Method in brief: as §1

[4] = compound: c1ccc2c(CCNc3ccc(Nc4ccncc4)cc3)c[nH]c2c1 [Serdemetan] + CS(=O)(=O)N1CCN(Cc2cc3nc(-c4cccc5[nH]ncc45)nc(N4CCOCC4)c3s2)CC1 [Pictilisib] (partner 1 µM)
Method in brief: as §1

Row | Cell Line | relative viability ([1]; first compound 0.4 µM) | relative viability ([1]; first compound 1.265 µM) | relative viability ([1]; first compound 4 µM) | relative viability ([1]; first compound 12.65 µM) | relative viability ([1]; first compound 40 µM) | relative viability ([2]; first compound 0.04 µM) | relative viability ([2]; first compound 0.1265 µM) | relative viability ([2]; first compound 0.4 µM) | relative viability ([2]; first compound 1.265 µM) | relative viability ([2]; first compound 4 µM) | relative viability ([3]; first compound 0.04 µM) | relative viability ([3]; first compound 0.1265 µM) | relative viability ([3]; first compound 0.4 µM) | relative viability ([3]; first compound 1.265 µM) | relative viability ([3]; first compound 4 µM) | relative viability ([4]; first compound 0.04 µM) | relative viability ([4]; first compound 0.1265 µM) | relative viability ([4]; first compound 0.4 µM) | relative viability ([4]; first compound 1.265 µM) | relative viability ([4]; first compound 4 µM)
1 | LCLC-103H | 0.527 | 0.475 | 0.456 | 0.507 | 0.548 | 0.686 | 0.671 | 0.684 | 0.538 | 0.638 | 0.697 | 0.81 | 0.647 | 0.556 | 0.569 | 0.629 | 0.665 | 0.619 | 0.594 | 0.611
2 | PC-3 [JPC-3] | 0.998 | 0.976 | 0.884 | 0.975 | 0.976 | 0.708 | 0.634 | 0.663 | 0.67 | 0.684 | 0.98 | 1 | 0.946 | 1.09 | 1.06 | 0.748 | 0.693 | – | 0.705 | 0.735
3 | BEN | 0.308 | 0.269 | 0.233 | 0.353 | 0.295 | 0.944 | 0.853 | 1.06 | 1.03 | 0.794 | 0.631 | 0.682 | 0.794 | – | 0.609 | 0.57 | 0.529 | 0.565 | 0.535 | 0.496
4 | NCI-H1666 | 0.799 | 0.763 | 0.734 | 0.594 | 0.525 | 0.887 | 0.854 | 0.836 | – | 0.672 | 0.967 | 0.909 | 0.937 | 0.591 | 0.742 | 0.412 | 0.413 | 0.525 | 0.531 | 0.465
5 | LC-2-ad | 0.611 | – | 0.456 | 0.459 | 0.569 | 0.86 | 0.909 | 0.884 | 0.86 | 0.705 | 0.883 | 0.943 | 0.831 | 0.748 | 0.86 | 0.42 | 0.445 | 0.431 | – | 0.417
6 | Calu-6 | – | – | – | – | – | – | – | – | – | – | 0.866 | 0.819 | 0.839 | 0.567 | 0.472 | 0.912 | 0.888 | 0.888 | 0.647 | 0.621
7 | NCI-H2342 | 0.312 | 0.339 | 0.297 | 0.33 | 0.363 | 0.818 | 0.84 | 1.12 | 0.789 | 0.669 | 1.22 | 1 | 0.882 | 0.504 | 0.592 | – | – | – | – | –
8 | EBC-1 | – | – | – | – | – | – | – | – | – | – | 0.12 | 0.123 | 0.107 | 0.124 | 0.129 | 0.35 | 0.449 | 0.451 | 0.411 | 0.368
9 | NCI-H1299 | – | – | – | – | – | – | – | – | – | – | 1.05 | 1.07 | 1.02 | 0.92 | 0.755 | 0.858 | 0.864 | 0.679 | 0.61 | 0.384
10 | NCI-H522 | 0.736 | 0.644 | 0.784 | 0.803 | 0.759 | 0.678 | 0.698 | 0.87 | 0.702 | 0.612 | – | – | – | – | – | – | – | – | – | –
11 | IA-LM | – | – | – | – | – | – | – | – | – | – | 1.04 | 1.06 | 0.877 | 0.999 | 0.414 | 0.4 | 0.499 | 0.325 | 0.314 | 0.389
